Results: US20260240792A1, “COMPOSITIONS FOR TREATING 5-HT2 CONDITIONS AND METHODS OF USING THE SAME” (Board of Supervisors of Louisiana State University and …, priority 2022, published 2026)
Several values for one entry are separate records, joined by “and”; a condition that tells them apart may be missing. Equal values may be shown once. Entries after “also recorded” stand apart in the source; their conditions may differ.

Tested on: rabbits
Experiment: Topical ocular dosing in rabbits: observation of CNS, systemic, ocular and behavioral effects, ocular tolerability
Type: in vivo, rabbit
Settings: for adverse events on repeated dosing / threshold dose for inducing systemic effects and minimal undesirable events: 50 μl per eye; for adverse events on repeated dosing: 2 times on day 1 then 4 times per day for 3 days
Description: Apparent Ocular Irritability • b. Induction of Inflammation • c. Reduction of Corneal Barrier Integrity • d. Dry Eye or Excessive Tearing • e. Induction of Neovascularization • f. Induction of Scleral Reddening
Parameters Assessed during 2 hour Observation Window (see, for example, FIG. 1):
Two studies were performed to determine at what dose between 0.01% and 0.1% were behavioral and/or systemic effects observed. 50 μL doses at 0.01%, 0.05%, and 0.075% per eye applied and assessments were made as indicated herein.
The application of most topical eye drops requires repeatedly dosing up to 9 times per day in order to maintain efficacy across the course of waking hours and have efficacious levels available during sleeping hours. The effects of repeated ocular dosing of R-DOI were assessed in a similar manner as described herein, with the exception that doses of 0.01% or 0.05% were applied repeatedly as outlined herein:
Animals from the acute dosing were continued through the repeated dosing study. Animals were dosed at the indicated concentration 2 times on day 1 and then dosed 4 times per day for 3 subsequent days. Doses were administered at 50 μl per eye into both eyes of the animal.
Rabbits were assessed for clinically clear eyes by slit lamp ophthalmic scoring. All eyes of all rabbits were normal.
Following balancing animals were treated with 50 μL of Control ophthalmic BSS/0.5% CMC or 0.01% Compound 1 in ophthalmic BSS/0.5% CMC.
Any behavioral changes were continuously monitored over the next 2.5 hours (FIG. 3).
We can determine if a single dose of the ocular composition of 0.01% R-DOI with 0.5% carboxymethylcellulose in ophthalmic BSS: • 1. Reproduced previous findings that R-DOI had IOP depressing effects. • 2. Produced any readily observable behavioral effects. • 3. Was tolerated by the eye without adverse ocular effects, including absence of: • a. Apparent Ocular Irritability • b. Induction of Inflammation • c. Dry Eye or Excessive Tearing • d. Induction of Scleral Reddening • 4. Reduced IOP • 5. Maintained Reduction in IOP • 6. Increased Tear Film Production
• Rabbits were assessed for clinically clear eyes by slit lamp ophthalmic scoring. All eyes of all rabbits were normal. • Each eye of each rabbit was then assessed for initial IOP by tonometer. • Each eye of each rabbit was assessed for tear film production by Schirmer's Tear Flo Strips at a 30 second interval of analysis. Tear measures were evaluated by a digital caliper to determine mm of tears collected. • Rabbits were sorted into two groups attempting to balance IOP numbers (one higher, one lower animal per group). • Following animals were treated with 50 μL of Control ophthalmic BSS/0.5% CMC or 0.01% R-DOI HCl in ophthalmic BSS/0.5% CMC. • Any apparent behavioral changes were continuously monitored over the next 2.5 hours. • IOP determinations were made at 30 minutes, 1 hour, 2 hours and 3 hours, 5 hours, 7 hours and 24 hours-eyes were examined closely for any adverse effects during these IOP measures. • 7 hours post treatment when IOP returned to control levels tear film production was assessed (see, for example, FIG. 9).

[1] = 0.075%, 50 μL per eye, both eyes, single dose
[2] = 0.075%, 50 μL per eye, both eyes, single dose, listed as R-DOI HCl
[3] = 0.1%, 50 μL per eye, both eyes, single dose
[4] = 0.1%, 50 μL per eye, both eyes, single dose, 2 hour observation
[5] = 0.1%, 50 μL per eye, both eyes, single dose, 2 hour observation, listed as R-DOI HCl

## COc1cc(C[C@@H](C)N)c(OC)cc1I [R-DOI, (R)-1-(2,5-dimethoxy-4-iodophenyl)-2-aminopropane]
0.01% or 0.05%, repeated dosing, listed as R-DOI HCl
  ocular tolerability of ophthalmic drops (irritability, dry eye or tearing, corneal damage, inflammation, neovascularization): tolerated with no signs or symptoms of irritability; also recorded: Neither signs of dry eye nor excessive tear production was observed; also recorded: no damage to corneal surfaces, barrier intactness, inflammation, or neovascularization
0.01%, 50 μL per eye, both eyes, single dose
  adverse events (ocular, systemic, behavioral or otherwise): No observable changes; also recorded: no apparent adverse events
0.01%, 50 μL per eye, both eyes, single dose, listed as R-DOI HCl
  adverse events (ocular, systemic, behavioral or otherwise): no adverse or abnormal events observed
0.01%, both eyes
  adverse events on repeated dosing: did not cause any adverse events; also recorded: No observable changes
0.01%, both eyes, listed as R-DOI HCl
  adverse events on repeated dosing: no adverse or abnormal events observed
0.01%, acute single dosing
  acute ocular toxicity, irritability or adverse ocular reactions: did not exhibit any acute ocular toxicity, irritability, or adverse ocular reactions
0.05%, 50 μL per eye, both eyes, single dose
  adverse events (ocular, systemic, behavioral or otherwise): No adverse events; also recorded: No observable changes
0.05%, 50 μL per eye, both eyes, single dose, listed as R-DOI HCl
  adverse events (ocular, systemic, behavioral or otherwise): no adverse or abnormal events observed
0.05%, both eyes
  adverse events on repeated dosing: did not cause any adverse events; also recorded: No observable changes
0.05%, both eyes, listed as R-DOI HCl
  adverse events on repeated dosing: no adverse or abnormal events observed
[1]
  adverse events (ocular, systemic, behavioral or otherwise): No adverse events; also recorded: No CNS, Ocular Behavioral or Systemic Changes
  pupil dilation/contraction (miosis): Slight Miosis can be observed in E10 and E11
[2]
  adverse events (ocular, systemic, behavioral or otherwise): no adverse CNS or systemic events observed
  pupil dilation/contraction (miosis): Slight but transient miosis was evident in 2 animals
0.075%, single dose, 2 animals
  time for miosis to resolve to normal after initial observation: ≤ 15 min
[3]
  onset of symptoms: 20 min
  time post treatment at which observed effects were cleared: cleared by one hour post administration and 1 hour to 2 hour post: Regained Responsiveness; Breathing Normal; Pupils Normal
[4]
  CNS associated behavioral effects: only slight CNS associated behavioral effects were noted; also recorded: Lethargy; also recorded: Head twitch?
  pupil dilation/contraction (miosis): miosis or contraction of the pupil; also recorded: Miosis obvious (pupil contracted)
  systemic effects (respiration and heart rate): increased respiration and heart rate were noted; also recorded: Increased breathing and Heartrate
[5]
  CNS associated behavioral effects: minimal to no head bobs/twitches observed
  systemic effects (respiration and heart rate): obvious increased respiration and heart rates
0.1%, 50 μL per eye, both eyes, single dose, listed as R-DOI HCl
  time post treatment at which observed effects were cleared: approximately 1 hour
Both eyes
  threshold dose for inducing systemic effects and minimal undesirable events: greater than 0.075%
Both eyes, listed as R-DOI HCl
  threshold dose for inducing systemic effects and minimal undesirable events: 0.1%
Delivered as a 50 μL drop of 0.1% ophthalmic solution to both eyes
  systemic and behavioral threshold concentration for delivery: ≥ 100 total micrograms per animal
Topical eye drop, acute single dosing and repeated dosing trials
  acute ocular toxicity, irritability or adverse ocular reactions: did not exhibit any acute ocular toxicity, irritability or adverse ocular reactions
